Data reported in PubChem BioAssay (NCI).
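Tested at 5 concentrations; 48 h exposure; 96-well plates; endpoints linearly interpolated, else capped at highest concentration. GI50 marks 50% less growth. TGI is the concentration that stops growth completely.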

Experiments:
Assay in all cases: NCI tumour cell line growth inhibition, 48 h
[1] = tested on: NCI/ADR-RES ovarian
[2] = tested on: SK-MEL-5 melanoma
[3] = tested on: EKVX NSCLC
[4] = tested on: SR leukemia
[5] = tested on: IGROV1 ovarian
[6] = tested on: SN12C renal
[7] = tested on: NCI-H460 lung
[8] = tested on: HCT-15 colon
[9] = tested on: RPMI-8226 leukemia
[10] = tested on: UO-31 renal

Compound | TGI [1] [µM] | TGI [2] [µM] | TGI [3] [µM] | TGI [4] [µM] | TGI [5] [µM] | TGI [6] [µM] | TGI [7] [µM] | TGI [8] [µM] | TGI [9] [µM] | GI50 [1] [µM] | GI50 [2] [µM] | GI50 [3] [µM] | GI50 [10] [µM] | TGI [10] [µM] | GI50 [4] [µM] | GI50 [5] [µM] | GI50 [6] [µM] | GI50 [7] [µM] | GI50 [8] [µM] | GI50 [9] [µM]
O=C(O)C1C(=O)Oc2c(cccc2[N+](=O)[O-])C1O (stereo not drawn) | > 100 | > 100 | > 100 | > 100 | > 100 | > 100 | > 100 | > 100 | > 100 | – | – | – | – | – | – | – | – | – | – | –
C[C@@H](NC(=O)[C@@H](CC(=O)N1CCC(N2CCCCC2)CC1)N1C(=O)[C@@H](N2C(=O)OC[C@@H]2c2ccccc2)[C@H]1/C=C/c1cccc(Cl)c1)c1ccccc1 | 24.8 | 3.34 | 18 | 7.78 | 19.2 | 8.85 | 3.95 | 7.74 | 8.32 | 5.92 | 1.85 | 3.79 | 2.03 | 5.35 | 2.61 | 4.62 | 2.9 | 2.02 | 2.56 | 2.93
CCN(CC)CCCC(C)Nc1c2ccc(Cl)cc2nc2cc(OC)c(OC)cc12 (stereo not drawn) | 9.69 | 3.21 | 5.06 | 13.6 | 9.96 | 17.8 | 4.05 | 3.49 | 6.66 | 2.47 | 1.81 | 1.78 | 1.43 | 2.89 | 1.27 | 2.15 | 3.31 | 1.3 | 1.2 | 2.47
O=c1oc(-c2ccccc2)cc2cccc(O)c12 | > 74.3 | > 100 | > 40.6 | > 100 | > 100 | 51.2 | > 100 | > 100 | > 100 | 33.3 | 24 | 4.22 | 72 | > 100 | 43.5 | 23 | 19.4 | 29 | 19.6 | 34
CC(=O)OCc1ccc(O)c(C=O)c1 | > 100 | > 100 | > 100 | > 100 | > 100 | > 100 | > 100 | > 100 | > 100 | – | – | – | – | > 100 | – | – | – | – | – | –
COc1ccc(-c2cn(-c3cccc(C(=O)/C=C/c4ccc(O)c(OC)c4)c3)c(=O)[nH]2)cc1 | > 31.4 | 11 | > 100 | > 100 | 18.2 | > 100 | 10.4 | 32.8 | 3.68 | 2.97 | 2.69 | 8.4 | 3.64 | 40.3 | 2.24 | 3.58 | 3.47 | 3.21 | 2.64 | 1.35
N#Cc1ccc(C2C3=C(CCCC3=O)OC3=C2C(=O)c2ccccc2C3=O)cc1 (stereo not drawn) | 7.81 | 3.25 | 3.86 | > 100 | 3.46 | 3.16 | 13.3 | 3.71 | 7.12 | 0.899 | 1.72 | 1.28 | 1.67 | 3.14 | 3.47 | 1.45 | 1.16 | 3.64 | 1.6 | 2.3
O=C(NCCN1CCC(O)CC1)c1cc2c(o1)C(=O)c1ccccc1C2=O | 5.24 | 0.275 | 2.49 | 20.5 | 1.02 | 0.354 | 0.39 | 0.624 | 4.72 | 1.52 | 0.141 | 0.979 | 0.666 | 1.84 | 0.396 | 0.3 | 0.175 | 0.192 | 0.21 | 1.58
N#C/C(=C\Nc1ccccn1)C(=O)c1ccco1 | > 100 | > 100 | > 100 | > 100 | > 100 | > 100 | > 100 | > 100 | > 100 | – | – | – | – | > 100 | – | – | – | – | – | –
O=C1c2cc(-c3ccccc3)ccc2-c2c1c1ccc([N+](=O)[O-])cc1c(=O)n2CCCBr | > 50 | > 50 | > 50 | > 15.1 | > 50 | > 50 | > 50 | > 50 | > 50 | > 50 | > 50 | > 50 | > 50 | > 50 | – | > 50 | > 50 | > 50 | > 50 | > 32.8
CSc1n(Cc2ccc3ccccc3c2)c(C)c[n+]1Cc1ccc2ccccc2c1 | 31.3 | 1.32 | 3.83 | 2.52 | 1.8 | 1.87 | 2.18 | 4.75 | 1.36 | 12.8 | 0.389 | 1.4 | 1.6 | 3.84 | 0.363 | 0.49 | 0.523 | 0.802 | 2.12 | 0.287
CC(=O)C1COC(O)C1C (stereo not drawn) | 48.6 | 29.7 | > 100 | 40.1 | 42.5 | 50.6 | 44.5 | 44.4 | 60 | – | – | – | – | 34.9 | – | – | – | – | – | –
Cn1c(/C=C(\C#N)c2cccc(C(F)(F)F)c2)nc2c(N3CCOCC3)nc(Cl)nc21 | 6.72 | 2.97 | 2.73 | 1.86 | 1.89 | 2.14 | 3.61 | 0.61 | 0.802 | 1.72 | 1.6 | 1.21 | 0.422 | 1.84 | 0.337 | 0.556 | 0.829 | 1.67 | 0.221 | 0.252
COc1c2c(c(CC=C(C)C)c3oc(=O)c(-c4ccc(O)cc4)c(O)c13)OC(C)(C)C=C2 | 93.7 | 25.8 | 95.8 | 79.9 | 44.9 | > 100 | 68.4 | 60.7 | 75.3 | – | – | – | – | > 100 | – | – | – | – | – | –
